{
  "source": "paper PMC7567930",
  "about": "(Heliyon, 2020)",
  "molecular_target": "Jack bean urease (Canavalia ensiformis, UniProt P07374)",
  "sequence (P07374 whole entry, looked up)": "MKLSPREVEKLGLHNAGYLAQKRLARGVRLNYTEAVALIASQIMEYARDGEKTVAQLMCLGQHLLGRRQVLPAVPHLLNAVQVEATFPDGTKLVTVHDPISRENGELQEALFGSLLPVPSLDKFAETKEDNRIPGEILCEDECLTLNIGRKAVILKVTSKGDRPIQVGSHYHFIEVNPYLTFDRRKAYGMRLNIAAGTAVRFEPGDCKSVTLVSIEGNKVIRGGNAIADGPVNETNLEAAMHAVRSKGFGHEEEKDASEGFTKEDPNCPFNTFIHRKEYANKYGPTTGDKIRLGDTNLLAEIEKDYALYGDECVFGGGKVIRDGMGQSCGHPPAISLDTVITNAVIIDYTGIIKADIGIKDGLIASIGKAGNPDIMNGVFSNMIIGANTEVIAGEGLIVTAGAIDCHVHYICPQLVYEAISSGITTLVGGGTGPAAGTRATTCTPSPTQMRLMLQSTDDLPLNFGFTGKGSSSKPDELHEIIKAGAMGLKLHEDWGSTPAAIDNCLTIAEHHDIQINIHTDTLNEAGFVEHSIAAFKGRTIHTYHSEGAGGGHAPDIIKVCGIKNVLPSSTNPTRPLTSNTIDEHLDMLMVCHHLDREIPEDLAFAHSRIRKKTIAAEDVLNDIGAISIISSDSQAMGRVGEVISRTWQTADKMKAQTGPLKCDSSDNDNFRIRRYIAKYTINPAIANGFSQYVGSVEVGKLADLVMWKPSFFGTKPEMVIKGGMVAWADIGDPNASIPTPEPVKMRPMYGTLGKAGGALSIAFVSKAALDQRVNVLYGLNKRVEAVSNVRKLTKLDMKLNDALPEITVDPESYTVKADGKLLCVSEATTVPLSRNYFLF",
  "assay": "Jack bean urease inhibition",
  "assay_type": "biochemical",
  "key": {"[1]": {"settings": "read-out: IC50 ± SEM, Table 2, derivatives 6a-6f, triplicate"}, "[2]": {"settings": "IC50 ± SEM, Table 1, derivatives 3a-3f, triplicate"}, "[3]": {"settings": "urease inhibition IC50, values in the abstract"}},
  "note": "“Also recorded” adds a separate entry of the source. Like-named read-outs stand apart in the source and are kept apart here.",
  "data": [
    {"compound": "COc1ccc2cc(C(C)n3cnc4ccccc43)ccc2c1", "note": "(racemic) [6f]", "values": [
      {"measurement": "IC50", "setting": "[1]", "result": "39 ± 2.4", "unit": "µM"}
    ]},
    {"compound": "COc1ccc2cc(C(C)c3nc4ccc(Cl)cc4[nH]3)ccc2c1", "note": "(racemic) [6b, (±)-6-chloro-2-((R)-1-(2-methoxynaphthalen-6-yl)ethyl)-1H-benzo[d]imidazol]", "values": [
      {"measurement": "IC50", "setting": "[1]", "result": "36 ± 1.7", "unit": "µM"}
    ]},
    {"compound": "COc1ccc2cc(C(C)n3cnc4ccccc43)ccc2c1", "note": "(racemic) [6a]", "values": [
      {"measurement": "IC50", "setting": "[1]", "result": "38 ± 1.3", "unit": "µM"}
    ]},
    {"compound": "COc1ccc2cc(C(C)c3nc4ccc(Br)cc4[nH]3)ccc2c1", "note": "(racemic) [6c, (±)-6-bromo-2-((R)-1-(2-methoxynaphthalen-6-yl)ethyl)-1H-benzo[d]imidazol]", "values": [
      {"measurement": "IC50", "setting": "[1]", "result": "51 ± 9.3", "unit": "µM"}
    ]},
    {"compound": "COc1ccc2cc(C(C)c3nc4ccc([N+](=O)[O-])cc4[nH]3)ccc2c1", "note": "(racemic) [compound 6d, (±)-6-Nitro-2-((R)-1-(2-methoxynaphthalen-6-yl)ethyl)-1H-benzo[d]imidazol]", "values": [
      {"measurement": "urease inhibition, result in words", "result": "not showing significant urease inhibition"},
      {"measurement": "IC50", "setting": "[1]", "result": "99 ± 9.4", "unit": "µM"}
    ]},
    {"compound": "NC(N)=S", "note": "[thiourea, reference compound]", "values": [
      {"measurement": "IC50", "setting": "read-out: IC50 of reference thiourea, standard inhibitor", "result": 20.9, "unit": "µM"}
    ]},
    {"compound": "CC(O)c1nc2ccccc2[nH]1", "note": "(single isomer, unassigned) [compound 3f, (R or S)-1-(1H-benzo[d]imidazol-2-yl)ethanol]", "values": [
      {"measurement": "urease inhibition, result in words", "result": "significant urease inhibition; also recorded: good enzyme inhibitory activity; also recorded: most potent"},
      {"measurement": "IC50", "setting": "[2]", "result": "31 ± 23.3", "unit": "µM"},
      {"measurement": "IC50", "setting": "[3]", "result": "31.4 ± 23.3", "unit": "µM"}
    ]},
    {"compound": "COc1ccc2cc(C(C)c3nc4ccc(C)cc4[nH]3)ccc2c1", "note": "(racemic) [6e, (±)-6-methyl-2-((R)-1-(2-methoxynaphthalen-6-yl)ethyl)-1H-benzo[d] imidazol]", "values": [
      {"measurement": "IC50", "setting": "[1]", "result": "44 ± 2.4", "unit": "µM"}
    ]},
    {"compound": "CC(O)c1nc2ccccc2[nH]1", "note": "(single isomer, unassigned) [compound 3a, (R or S)-1-(1H-benzo[d]imidazol-2-yl)ethanol]", "values": [
      {"measurement": "urease inhibition, result in words", "result": "significant urease inhibition; also recorded: good enzyme inhibitory activity; also recorded: most potent"},
      {"measurement": "IC50", "setting": "[2]", "result": "22 ± 6.2", "unit": "µM"},
      {"measurement": "IC50", "setting": "[3]", "result": "22.3 ± 6.2", "unit": "µM"}
    ]}
  ]
}
